Assay results: ChEMBL document CHEMBL3988442, “University of Dundee, Small-Polar-MMV Screening Library” (2021)

Key:
Tryptophan--tRNA ligase = Tryptophan--tRNA ligase (Mycobacterium tuberculosis (strain ATCC 25618 / H37Rv), UniProt P9WFT3); assay: Biochemical assay for Mt-TrpRS; type: functional
[1] = In vitro enzyme assay to detect hydrolysis of chlorophenol red-beta-D-[…] directly proportional to the number of Toxoplasma stably expressing beta-galactosidase; type: functional, organism-based, Toxoplasma gondii; details: for IC50: Toxoplasma gondii
Plasmodium falciparum = assay: Calibr Malaria Delayed Death Assay SOP; type: functional, organism-based; details: for IC50: Plasmodium falciparum
ClpP1P2 = ClpP1P2 (Mycobacterium tuberculosis (strain ATCC 25618 / H37Rv), UniProt P9WPC3+P9WPC5); assay: in vitro assay to detect presence of AMC directly proportional to the activity of ClpP1P2. GHDDI collaboration.; type: functional
Schistosoma mansoni = assay: High throughput screening of compounds against Schistosoma mansoni motility; type: functional; parameters: dose or concentration left out as unconfirmed
[2] = microbe, parasite or virus in culture; details: Mycobacterium tuberculosis, 72 h, read-out: pIC50 (converted)
[3] = microbe, parasite or virus in culture; details: Mycobacterium tuberculosis, 96 h, read-out: pIC50 (converted)

Sequence of Tryptophan--tRNA ligase (P9WFT3 whole entry): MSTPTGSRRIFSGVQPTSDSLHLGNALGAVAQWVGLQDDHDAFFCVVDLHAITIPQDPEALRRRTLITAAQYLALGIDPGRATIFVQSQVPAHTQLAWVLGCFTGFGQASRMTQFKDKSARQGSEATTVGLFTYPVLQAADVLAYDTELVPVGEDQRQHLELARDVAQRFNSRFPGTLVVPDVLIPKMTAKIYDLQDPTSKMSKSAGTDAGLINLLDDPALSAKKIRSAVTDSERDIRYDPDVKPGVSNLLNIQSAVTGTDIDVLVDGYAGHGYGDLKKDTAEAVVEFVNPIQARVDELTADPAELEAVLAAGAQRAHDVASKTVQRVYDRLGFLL
Sequence of ClpP1P2 (P9WPC5 whole entry): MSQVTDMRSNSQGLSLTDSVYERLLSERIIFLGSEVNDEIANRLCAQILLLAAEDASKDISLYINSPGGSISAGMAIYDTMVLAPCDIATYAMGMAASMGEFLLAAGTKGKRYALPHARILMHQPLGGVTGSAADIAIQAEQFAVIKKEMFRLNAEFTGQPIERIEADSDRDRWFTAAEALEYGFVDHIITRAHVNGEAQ
Sequence of ClpP1P2 (P9WPC3 whole entry): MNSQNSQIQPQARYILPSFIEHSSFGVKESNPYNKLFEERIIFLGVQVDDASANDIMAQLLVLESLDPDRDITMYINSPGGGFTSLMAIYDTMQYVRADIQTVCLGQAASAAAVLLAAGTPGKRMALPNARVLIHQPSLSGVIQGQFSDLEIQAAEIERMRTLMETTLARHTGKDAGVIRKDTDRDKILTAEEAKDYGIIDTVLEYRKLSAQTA

| Compound | IC50 (Tryptophan--tRNA ligase) | other results |
| --- | --- | --- |
| CNC(=O)c1cc2ccccc2n1C | > 195 µM |  |
| Cn1nccc1CCC(=O)N1CCCC(Cc2cccnc2)C1 (centres undefined) | > 195 µM |  |
| Cc1cc2cc(C(=O)N3C[C@H](O)[C@]4(CCCO4)C3)ccc2o1 | > 195 µM |  |
| CO[C@H]1CC[C@H]2[C@H]1OCCN2C(=O)C1=CCCC1 | > 195 µM |  |
| CC(C)Nc1cc(-c2c[nH]nc2C2CCN(C(=O)C3CC3)C2)ccn1 (centres undefined) |  | IC50 [1]: 0.423 µM; pIC50 (Plasmodium falciparum): 6.541; IC50 (Plasmodium falciparum): 0.269 µM |
| c1cn(-c2cnc(C3CCNCC3)cn2)cn1 | > 195 µM |  |
| CC(C)c1nc(CN2CCCC(Cn3cncn3)C2)cs1 (centres undefined) | > 195 µM |  |
| c1ccc(N2CCOC(Cc3cccnc3)C2)cc1 (centres undefined) | > 195 µM |  |
| O=C([C@H]1COC[C@H]2CN(c3ccncn3)C[C@H]21)N1CCCC1 | > 195 µM |  |
| Cc1ccc(F)cc1-c1ccc(N)nc1 | > 195 µM |  |
| CC(C)(C)OC(=O)N1CC(=O)N(CCc2ccccc2)CC(O)C1 (centres undefined) | > 195 µM |  |
| C[C@]1(O)CN(Cc2ncc[nH]2)CC[C@@H]1Oc1cccc(F)c1 | > 195 µM |  |
| CS(=O)(=O)N1CCC2(CC1)CC(NCc1ccco1)c1ccccc12 (centres undefined) | > 195 µM |  |
| c1cc(CN2C[C@H](OCC3CCOCC3)[C@H]3COC[C@H]32)co1 | > 195 µM |  |
| Cc1ccc(S(=O)(=O)NCc2[nH]ncc2Br)cc1F | > 195 µM |  |
| O=C(C1CCCC1)N1CCCC(c2nc(O)cc(-c3ccncc3)n2)C1 (centres undefined) | > 195 µM |  |
| CNc1oc(-c2ccc(S(=O)(=O)N(C)C)o2)nc1C#N |  | IC50 [1]: > 50.1 µM; IC50 (ClpP1P2): > 100 µM |
| COCCNc1nnc(-c2ccccn2)s1 | > 195 µM |  |
| Nc1nccc(C2CCN(CC3CC3)C2)n1 (centres undefined) | > 195 µM |  |
| Cc1cc(N)cc(C2CN(Cc3cc[nH]n3)CCO2)n1 (centres undefined) | > 195 µM |  |
| O[C@H]1CN(Cc2cccc(C(F)(F)F)c2)CC[C@@]12CCCO2 | > 195 µM |  |
| NCCC(=O)Nc1ccc(-c2ccccc2)cc1 | > 195 µM |  |
| Cn1nc(C2CN(C(=O)c3ccncc3)C2)c2nccnc21 | > 195 µM |  |
| Cc1ccc2cc(CNCCN3CCCC3)c(=O)[nH]c2c1 | > 195 µM |  |
| OC1CCN(Cc2c(-c3ccco3)[nH]c3ncccc23)CC1 | > 195 µM |  |
| CNc1cc(-c2ccncc2)ncn1 | > 195 µM |  |
| Cc1noc([C@@H]2C[C@H]3CN(CC4CCOCC4)C[C@H]3O2)n1 | > 195 µM |  |

| Compound | IC50 (Tryptophan--tRNA ligase) | other results |
| --- | --- | --- |
| O=C(NC1CC1)N1C[C@@H]2CCN(C(=O)c3cscn3)[C@@H]2C1 | > 195 µM |  |
| Cc1cc(N2CCC(c3n[nH]c4nccnc34)CC2)ncn1 | > 195 µM |  |
| c1cnnc(N2CCCC(NCc3nc(-c4ccco4)no3)C2)c1 (centres undefined) | > 195 µM |  |
| Cc1cc(C[C@@H]2CCC[C@H]2NCc2ccccc2F)on1 | > 195 µM |  |
| CCCC(=O)N1CCCC(c2ccccn2)C1 (centres undefined) | > 195 µM |  |
| NC(=O)CN1CCOCC(Cc2ccccc2Cl)C1 (centres undefined) | > 195 µM |  |
| CCn1ncc2c1C(COC)N(C(=O)c1cscn1)CC2 (centres undefined) | > 195 µM |  |
| CC(=O)c1ccc(OCC(C)O)cc1O (centres undefined) | > 195 µM |  |
| CC(C)C(=O)N1CCC(C)(c2cc(O)[nH]n2)CC1 | > 195 µM |  |
| Cc1cccc(CN2CCC(c3nnsc3S(C)(=O)=O)CC2)c1 | > 195 µM |  |
| CNC(=O)COC1COC2(CCN(Cc3cccnc3)CC2)C1 (centres undefined) | > 195 µM |  |
| Cn1cnnc1C1CCN(C(=O)CCOc2ccc(Cl)cc2)CC1 | > 195 µM |  |
| CS(=O)(=O)c1snnc1C1CCN(Cc2cccnc2)CC1 | > 195 µM |  |
| COCC(=O)N1CCOC(c2ccc(N(C)C)cn2)C1 (centres undefined) | > 195 µM |  |
| OC(CNc1ccc(Cl)cn1)CN1CCOCC1 (centres undefined) | > 195 µM |  |
| Cc1cccnc1C(=O)N1CCC(Cc2cnc3[nH]ccc3c2)CC1 | > 195 µM |  |
| COCCC(=O)N1CCC2(COCc3cnc(-c4cccnc4)nc32)C1 (centres undefined) | > 195 µM |  |
| CC(C)N(C)Cc1cncc2c1CCN(Cc1ccoc1)C2 | > 195 µM |  |
| O=C(C1CCCC1)N1CCC(c2n[nH]c3nccnc23)CC1 | > 195 µM |  |
| N#Cc1cn[nH]c1NCc1cc(Br)ccc1O | 31.4 µM |  |
| COCCC(=O)N1CCCC(c2nc(O)cc(-c3ccncc3)n2)C1 (centres undefined) | > 195 µM |  |
| Nc1nc2c(c(NC3CCCC3)n1)CCN(C(=O)C1CCOC1)CC2 (centres undefined) | > 195 µM |  |
| COCCN1C(=O)CO[C@H]2CN(Cc3ccccc3Cl)C[C@@H]21 | > 195 µM |  |
| CC(C)C(NC(=O)C1CCCC1)c1cc(O)nc(-c2cccnc2)n1 (centres undefined) | > 195 µM |  |
| CC(C)N(C)CC(=O)N(C)C(c1cccc(F)c1)c1ccccn1 (centres undefined) | > 195 µM |  |
| CCCC(O)CN1CC(C)(C)CN(C(=O)CCc2ccccc2)CC1=O (centres undefined) | > 195 µM |  |
| O=C(c1cncs1)N1CCC(c2cnccn2)CC1 | > 195 µM |  |

| Compound | IC50 (Tryptophan--tRNA ligase) | other results |
| --- | --- | --- |
| CCN(CC)S(=O)(=O)N1CCCC(c2ncc3c(n2)CCN(C)C3)C1 (centres undefined) | > 195 µM |  |
| COc1ccc(CN2C[C@@H](O)[C@](O)(CNC(=O)c3ccccn3)C2)cc1 | > 195 µM |  |
| Cn1cc(C(=O)NCc2cncc3c2CCN(CC2CC2)C3)cn1 | > 195 µM |  |
| c1cc(-c2cnc(C3CCNCC3)cn2)n[nH]1 | > 195 µM |  |
| CCc1ccc(C(=O)N2CCC(c3nncn3CC)CC2)s1 | > 195 µM |  |
| COCCN1CC=C(c2cccc(OC)c2)CC1 | > 195 µM |  |
| O=C(Cn1ccnc1)N1C[C@@H]2CC[C@H](Oc3ccccc3F)[C@@H]2C1 | > 195 µM |  |
| CC(C)c1nc(CN2CCC(c3ccnn3CCO)CC2)no1 | > 195 µM |  |
| Cc1cnn(CC2CCCN2Cc2nc(N)c3ccccc3n2)c1 (centres undefined) | > 195 µM |  |
| O=C(NCCc1ccncc1)c1cccnc1OCC(F)(F)F | > 195 µM |  |
| Cc1nc(CCC(=O)NCC(N)=O)cc(C2CCNCC2)n1 | > 195 µM |  |
| O=S(=O)(NCC1(O)CCOc2ccccc21)c1ccc(Br)s1 (centres undefined) |  | IC50 [1]: 7.49 µM; Percent Effect (Schistosoma mansoni): -11.19% |
| O=C(CN1CCCC(c2ccn[nH]2)C1)Nc1nc2c(s1)CCC2 (centres undefined) |  | IC50 [1]: 0.766 µM; pIC50 (Plasmodium falciparum): 6.713; IC50 (Plasmodium falciparum): 0.216 µM |
| CCCn1ncc(-c2ccnc(NC3CC(C)(C)NC(C)(C)C3)n2)c1C |  | IC50 [1]: 9.87 µM; pIC50 (Plasmodium falciparum): 6.559; IC50 (Plasmodium falciparum): 0.23 µM |
| CCNCc1ccc(OCc2ccc3c(c2)OCCO3)cc1.Cl |  | pIC50 [1]: 4.872; IC50 [1]: 8.2 µM; IC50 (ClpP1P2): > 100 µM |
| Cc1cc(C2CCCN(CC(=O)Nc3nc4c(s3)CCC4)C2)n[nH]1 (centres undefined) |  | IC50 [2]: 37.8 µM; IC50 [3]: 47.2 µM; IC50 [1]: 0.781 µM; pIC50 (Plasmodium falciparum): 6.771; IC50 (Plasmodium falciparum): 0.185 µM |
| CC(C)CNc1cc(-c2c[nH]nc2C2CCN(C(=O)C3CC3)C2)ccn1 (centres undefined) |  | IC50 [1]: 0.274 µM; pIC50 (Plasmodium falciparum): 6.615; IC50 (Plasmodium falciparum): 0.233 µM |
| Cc1ccc(C(CCNCCCN(C)C)C2CCOC(C)(C)C2)cc1.O=C(O)C(=O)O (centres undefined) |  | pIC50 [1]: 5.301; IC50 [1]: 5.38 µM; pIC50 (Plasmodium falciparum): 6.22; IC50 (Plasmodium falciparum): 0.659 µM |
| CCOC(=O)C1(Cc2ccccc2-c2ccccc2OC)CCNCC1.Cl |  | IC50 [1]: 13.2 µM; pIC50 (Plasmodium falciparum): 6.391; IC50 (Plasmodium falciparum): 0.369 µM |
| COc1ccc(-c2ccccc2CCN)c(OC)c1OC |  | IC50 [2]: 43.4 µM; IC50 [3]: 25.1 µM; IC50 [1]: 3.52 µM; pIC50 (Plasmodium falciparum): 6.053; IC50 (Plasmodium falciparum): 0.762 µM |
| CC(C)Nc1cc(-c2c[nH]nc2C2CCN(C(=O)C3CCC3)C2)ccn1 (centres undefined) |  | IC50 [1]: 0.526 µM; pIC50 (Plasmodium falciparum): 6.647; IC50 (Plasmodium falciparum): 0.209 µM |
| CC1CCN(C(=O)CSc2nncs2)CC1 |  | IC50 [2]: 22.7 µM; IC50 [3]: 23.8 µM; IC50 [1]: > 50.1 µM |
| CCCNc1cc(-c2c[nH]nc2C2CCN(C(=O)C3CCC3)C2)ccn1 (centres undefined) |  | IC50 [1]: 0.368 µM; pIC50 (Plasmodium falciparum): 6.573; IC50 (Plasmodium falciparum): 0.237 µM |
| c1ccc(COCCc2noc(C3CNC3)n2)cc1 |  | IC50 [2]: 222 µM; IC50 [3]: 270 µM; IC50 [1]: 24.9 µM |
| CC(C)(C)c1cn2c(n1)C(CNCc1ccccn1)CCC2 (centres undefined) |  | IC50 [1]: 2.04 µM; pIC50 (Plasmodium falciparum): 6.014; IC50 (Plasmodium falciparum): 0.881 µM |
